Test results taken from US11149037B2, “Pyrazole MAGL inhibitors” (H. Lundbeck A/S, priority 2017, dated 2021).

What was measured:
[1] = molecular target: MAGL (Mus musculus (Mouse), UniProt O35678); assay: In vitro competitive activity-based protein profiling, mouse proteomes (brain membrane fraction or cell lysates); type: biochemical; settings: mouse proteome, read-out: MAGL % inh. 1 μM (mouse)
Procedure: (§1) In Vitro Competitive Activity-Based Protein Profiling.
(§2) Proteomes (mouse brain membrane fraction or cell lysates for mouse assays; human prefrontal cortex or PC3 cell membrane fractions for human assays) (50 μL, 1.0 or 2.0 mg/mL total protein concentration) were preincubated with varying concentrations of inhibitors at 37° C. After 30 min, FP-Rh or JW912 or HT-01 (1.0 μL, 50 μM in DMSO) was added and the mixture was incubated for another 30 min at 37° C. Reactions were quenched with SDS loading buffer (15 μL-4×) and run on SDS-PAGE. Following gel imaging, serine hydrolase activity was determined by measuring fluorescent intensity of gel bands corresponding to MAGL and FAAH using ImageJ 1.43u software.

[2] = molecular target: MAGL (Homo sapiens (Human), UniProt Q99685); assay: In vitro competitive activity-based protein profiling, human proteomes (prefrontal cortex or PC3 cell membrane fractions); type: biochemical; settings: human proteome; for inhibition at 1 µM: read-out: MAGL % inh. 1 μM (human); for inhibition at 10 µM: read-out: MAGL % inh. (human) @ 10 μM
Procedure: as §1, §2

Chain of MAGL (Homo sapiens (Human), UniProt Q99685) (Q99685 whole entry): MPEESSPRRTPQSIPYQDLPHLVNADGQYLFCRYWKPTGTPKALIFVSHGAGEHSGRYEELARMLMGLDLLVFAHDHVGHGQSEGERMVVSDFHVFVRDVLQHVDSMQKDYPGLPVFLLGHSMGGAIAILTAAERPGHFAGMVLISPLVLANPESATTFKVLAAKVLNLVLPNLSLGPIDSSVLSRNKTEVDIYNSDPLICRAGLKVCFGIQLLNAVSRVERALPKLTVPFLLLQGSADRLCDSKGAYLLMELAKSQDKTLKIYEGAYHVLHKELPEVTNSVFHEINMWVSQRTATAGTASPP
Chain of MAGL (Mus musculus (Mouse), UniProt O35678) (O35678 whole entry): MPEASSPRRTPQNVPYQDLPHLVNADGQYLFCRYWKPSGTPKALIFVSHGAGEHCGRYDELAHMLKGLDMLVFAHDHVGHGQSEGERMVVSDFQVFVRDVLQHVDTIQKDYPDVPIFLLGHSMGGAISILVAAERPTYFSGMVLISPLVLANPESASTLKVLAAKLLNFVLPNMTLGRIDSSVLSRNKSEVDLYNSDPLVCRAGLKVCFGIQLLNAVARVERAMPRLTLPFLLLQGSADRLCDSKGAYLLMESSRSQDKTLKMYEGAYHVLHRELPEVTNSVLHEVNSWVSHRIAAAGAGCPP

Compound	inhibition at 1 µM [1] [%]	inhibition at 1 µM [2] [%]	inhibition at 10 µM [2] [%]	IC50 [2] [µM]
C[C@H]1CN(C(=O)n2ccc(NS(C)(=O)=O)n2)CCN1Cc1ccc(Cl)c(N2CCCC2)c1 [Example 42, (S)-N-(1-(4-(4-Chloro-3-(pyrrolidin-1-yl)benzyl)-3-methylpiperazine-1-carbonyl)-1H-pyrazol-3-yl)methanesulfonamide]	> 75	> 75		
CS(=O)(=O)Nc1ccn(C(=O)N2CCN(Cc3ccc(Cl)c(N4CC5CNCC5C4)c3)CC2)n1 (stereo not drawn) [Example 152, N-(1-(4-(4-Chloro-3-(hexahydropyrrolo[3,4-c]pyrrol-2(1H)-yl)benzyl)piperazine-1-carbonyl)-1H-pyrazol-3-yl)methanesulfonamide]			> 75	
CS(=O)(=O)Nc1ccn(C(=O)N2CCC3(CCN(Cc4ccccc4)C3)CC2)n1 [Example 165, N-(1-(2-Benzyl-2,8-diazaspiro[4.5]decane-8-carbonyl)-1H-pyrazol-3-yl)methanesulfonamide]			> 75	
CC(=O)Nc1ccn(C(=O)N2CCC3(CCN(Cc4cccc(C(F)(F)F)c4)C3)CC2)n1 [Example 175, N-(1-(2-(3-(Trifluoromethyl)benzyl)-2,8-diazaspiro[4.5]decane-8-carbonyl)-1H-pyrazol-3-yl)acetamide]	> 75	> 75		< 0.1
CN(Cc1ccc(Cl)c(N2CC3COCC3C2)c1)C1CCN(C(=O)n2ccc(NS(C)(=O)=O)n2)CC1 (stereo not drawn) [Example 177, N-(1-(4-((4-Chloro-3-(tetrahydro-1H-furo[3,4-c]pyrrol-5(3H)-yl)benzyl)(methyl)amino)piperidine-1-carbonyl)-1H-pyrazol-3-yl)methanesulfonamide]	> 75	> 75		
C[C@H]1CN(Cc2ccc(C(F)(F)F)c(N3CC4COCC4C3)c2)CCN1C(=O)n1ccc(NS(C)(=O)=O)n1 (stereo partly drawn) [Example 178, N-(1-((2S)-2-Methyl-4-(3-(tetrahydro-1H-furo[3,4-c]pyrrol-5(3H)-yl)-4-(trifluoromethyl)benzyl)piperazine-1-carbonyl)-1H-pyrazol-3-yl)methanesulfonamide]	> 75	> 75		< 0.1
C[C@H]1CN(C(=O)n2ccc(NS(C)(=O)=O)n2)CCN1Cc1ccc(C(F)(F)F)c(N2CC3COCC3C2)c1 (stereo partly drawn) [Example 179, N-(1-((3S)-3-Methyl-4-(3-(tetrahydro-1H-furo[3,4-c]pyrrol-5(3H)-yl)-4-(trifluoromethyl)benzyl)piperazine-1-carbonyl)-1H-pyrazol-3-yl)methanesulfonamide]	> 75	> 75		< 0.1
C[C@@H]1CN(Cc2ccc(C(F)(F)F)c(N3CC4COCC4C3)c2)CCN1C(=O)n1ccc(NS(C)(=O)=O)n1 (stereo partly drawn) [Example 180, N-(1-((2R)-2-Methyl-4-(3-(tetrahydro-1H-furo[3,4-c]pyrrol-5(3H)-yl)-4-(trifluoromethyl)benzyl)piperazine-1-carbonyl)-1H-pyrazol-3-yl)methanesulfonamide]	> 75	> 75		< 0.1
CS(=O)(=O)Nc1ccn(C(=O)N2CCN(Cc3ccc(C(F)(F)F)c(N4CC5COCC5C4)c3)CC2)n1 (stereo not drawn) [Example 181, N-(1-(4-(3-(Tetrahydro-1H-furo[3,4-c]pyrrol-5(3H)-yl)-4-(trifluoromethyl)benzyl)piperazine-1-carbonyl)-1H-pyrazol-3-yl)methanesulfonamide]	> 75	> 75		< 0.1
CN(Cc1ccc(Cl)c(N2CCCC2)c1)C1(C)CCN(C(=O)n2ccc(NS(C)(=O)=O)n2)CC1 [Example 183, N-(1-(4-((4-Chloro-3-(pyrrolidin-1-yl)benzyl)(methyl)amino)-4-methylpiperidine-1-carbonyl)-1H-pyrazol-3-yl)methanesulfonamide]	> 75	> 75		
C[C@@H]1CN(C(=O)n2ccc(NS(C)(=O)=O)n2)CCN1Cc1ccc(Cl)c(N2CC[C@H](F)C2)c1 [Example 203, N-(1-((R)-4-(4-Chloro-3-((S)-3-fluoropyrrolidin-1-yl)benzyl)-3-methylpiperazine-1-carbonyl)-1H-pyrazol-3-yl)methanesulfonamide]		> 75		
CS(=O)(=O)Nc1ccn(C(=O)N2CCC3(CCCN3Cc3ccc(Cl)cc3N3CCC(F)CC3)CC2)n1 [Example 204, N-(1-(1-(4-Chloro-2-(4-fluoropiperidin-1-yl)benzyl)-1,8-diazaspiro[4.5]decane-8-carbonyl)-1H-pyrazol-3-yl)methanesulfonamide]		> 75		
CS(=O)(=O)Nc1ccn(C(=O)N2CCC3(CCCN3Cc3ccc(Cl)cc3N3CC4COCC4C3)CC2)n1 (stereo not drawn) [Example 205, N-(1-(1-(4-Chloro-2-(tetrahydro-1H-furo[3,4-c]pyrrol-5(3H)-yl)benzyl)-1,8-diazaspiro[4.5]decane-8-carbonyl)-1H-pyrazol-3-yl)methanesulfonamide]		> 75		
CN(Cc1ccc(Cl)c(N2CCC(F)CC2)c1)C1CCN(C(=O)n2ccc(NS(C)(=O)=O)n2)CC1 [Example 206, N-(1-(4-((4-Chloro-3-(4-fluoropiperidin-1-yl)benzyl)(methyl)amino)piperidine-1-carbonyl)-1H-pyrazol-3-yl)methanesulfonamide]		> 75		
CC(=O)Nc1ccn(C(=O)N2CCN(Cc3ccc(-c4ccccc4)cc3C)C[C@@H]2C)n1 [Example 207, (S)-N-(1-(2-Methyl-4-((3-methyl-[1,1′-biphenyl]-4-yl)methyl)piperazine-1-carbonyl)-1H-pyrazol-3-yl)acetamide]		> 75		
CC(=O)Nc1ccn(C(=O)N2CCN(Cc3ccc(-c4ccccc4)cc3C)C[C@H]2C)n1 [Example 208, (R)-N-(1-(2-Methyl-4-((3-methyl-[1,1′-biphenyl]-4-yl)methyl)piperazine-1-carbonyl)-1H-pyrazol-3-yl)acetamide]		> 75		< 0.1

Results, then the molecule that gave them:

inhibition at 1 µM [1] [%]	inhibition at 1 µM [2] [%]	inhibition at 10 µM [2] [%]	IC50 [2] [µM]	Compound
	> 75			CS(=O)(=O)Nc1ccn(C(=O)N2CCN(Cc3ccc(Cl)c(N4CCC(C#N)CC4)c3)CC2)n1 [Example 211, N-(1-(4-(4-Chloro-3-(4-cyano-piperidin-1-yl)benzyl)piperazine-1-carbonyl)-1H-pyrazol-3-yl)methane-sulfonamide]
	> 75			CS(=O)(=O)Nc1ccn(C(=O)N2CCN(Cc3ccc(Cl)c(F)c3)CC2)n1 [Example 212, N-(1-(4-(4-Chloro-3-fluorobenzyl)piperazine-1-carbonyl)-1H-pyrazol-3-yl)methane-sulfonamide]
	> 75			CC(C)C1CCN(c2cc(CN3CCN(C(=O)n4ccc(NS(C)(=O)=O)n4)CC3)ccc2Cl)CC1 [Example 213, N-(1-(4-(4-Chloro-3-(4-isopropyl-piperidin-1-yl)benzyl)piperazine-1-carbonyl)-1H-pyrazol-3-yl)methane-sulfonamide]
	> 75			CS(=O)(=O)Nc1ccn(C(=O)N2CCN(Cc3ccc(Cl)c(C(F)(F)F)c3)CC2)n1 [Example 214, N-(1-(4-(4-Chloro-3-(trifluoromethyl)benzyl)piperazine-1-carbonyl)-1H-pyrazol-3-yl)methane-sulfonamide]
	> 75			C[C@@H]1CN(C(=O)n2ccc(NS(C)(=O)=O)n2)CCN1Cc1ccc(Cl)c(C2CCCC2)c1 [Example 215, (R)-N-(1-(4-(4-Chloro-3-cyclopentyl-benzyl)-3-methyl-piperazine-1-carbonyl)-1H-pyrazol-3-yl)methane-sulfonamide]
	> 75			C[C@H]1CN(C(=O)n2ccc(NS(C)(=O)=O)n2)CCN1Cc1ccc(Cl)c(C2CCCC2)c1 [Example 216, (S)-N-(1-(4-(4-Chloro-3-cyclopentyl-benzyl)-3-methyl-piperazine-1-carbonyl)-1H-pyrazol-3-yl)methane-sulfonamide]
	> 75			CC(=O)Nc1ccn(C(=O)N2CCC(C)(N(C)Cc3ccc(Cl)c(C)c3)CC2)n1 [Example 217, N-(1-(4-((4-Chloro-3-methylbenzyl) (methyl)amino)-4-methyl-piperidine-1-carbonyl)-1H-pyrazol-3-yl)acetamide]
	> 75			CS(=O)(=O)Nc1ccn(C(=O)N2CCN(Cc3ccc(F)c(OC(F)(F)F)c3)CC2)n1 [Example 218, N-(1-(4-(4-Fluoro-3-(trifluoromethoxy)benzyl)piperazine-1-carbonyl)-1H-pyrazol-3-yl)methane-sulfonamide]
	> 75			CS(=O)(=O)Nc1ccn(C(=O)N2CCN(Cc3cccc(C(F)(F)F)c3Cl)CC2)n1 [Example 219, N-(1-(4-(2-Chloro-3-(trifluoromethyl)benzyl)piperazine-1-carbonyl)-1H-pyrazol-3-yl)methane-sulfonamide]
	> 75			Cc1c(CN2CCN(C(=O)n3ccc(NS(C)(=O)=O)n3)CC2)cccc1C(F)(F)F [Example 220, N-(1-(4-(2-Methyl-3-(trifluoromethyl)benzyl)piperazine-1-carbonyl)-1H-pyrazol-3-yl)methane-sulfonamide]
	> 75			CS(=O)(=O)Nc1ccn(C(=O)N2CCN(Cc3ccc(OC(F)F)c(OCC4CC4)c3)CC2)n1 [Example 221, N-(1-(4-(3-(Cyclopropyl-methoxy)-4-(difluoro-methoxy)benzyl)piperazine-1-carbonyl)-1H-pyrazol-3-yl)methane-sulfonamide]
	> 75			CS(=O)(=O)Nc1ccn(C(=O)N2CCN(Cc3ccc(F)c(Oc4ccccc4)c3)CC2)n1 [Example 222, N-(1-(4-(4-Fluoro-3-phenoxy-benzyl)piperazine-1-carbonyl)-1H-pyrazol-3-yl)methane-sulfonamide]
